Data taken from PubChem BioAssay AID248 (DTP/NCI, 2004).
Where “and” joins values, the source holds several entries; their conditions need not be identical. Equal values may be shown once. Toxic doses and inconclusive results are not listed. Cut-off read from the data, not from the text of the source: active = T/C of 150% or more; inactive = T/C below 125%.

Test system: L1210 leukemia ip in BDF1 mice, survival T/C
Assay: NCI In Vivo Anticancer Drug Screen. Data for tumor model L1210 Leukemia (intraperitoneal) in B6D2F1 (BDF1) mice
Conditions: endpoint: mean survival time, higher = longer survival
Procedure, shortened: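 Transplantable tumor model; survival measured in treated vs vehicle control mice. Value = treated/control.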

[1] = dose: 100.0 mg/kg/injection, schedule: Q04DX003 (ip), vehicle: Klucel (hydroxypropylcellulose) (HPC)
[2] = dose: 200.0 mg/kg/injection, schedule: Q04DX003 (ip), vehicle: Klucel (hydroxypropylcellulose) (HPC)
[3] = dose: 400.0 mg/kg/injection, schedule: Q04DX003 (ip), vehicle: Klucel (hydroxypropylcellulose) (HPC)
[4] = dose: 100.0 mg/kg/injection, schedule: Q04DX002 (ip), vehicle: Klucel (hydroxypropylcellulose) (HPC)
[5] = dose: 200.0 mg/kg/injection, schedule: Q04DX002 (ip), vehicle: Klucel (hydroxypropylcellulose) (HPC)
[6] = dose: 100.0 mg/kg/injection, schedule: Q01DX009 (ip), vehicle: Klucel (hydroxypropylcellulose) (HPC)
[7] = dose: 200.0 mg/kg/injection, schedule: Q01DX009 (ip), vehicle: Klucel (hydroxypropylcellulose) (HPC)
[8] = dose: 50.0 mg/kg/injection, schedule: Q01DX009 (ip), vehicle: Klucel (hydroxypropylcellulose) (HPC)
[9] = dose: 100.0 mg/kg/injection, schedule: Q04DX002 (ip), vehicle: saline with Tween-80
[10] = dose: 200.0 mg/kg/injection, schedule: Q04DX002 (ip), vehicle: saline with Tween-80
[11] = dose: 100.0 mg/kg/injection, schedule: Q01DX001 (ip), vehicle: carboxymethylcellulose (CMC)
[12] = dose: 200.0 mg/kg/injection, schedule: Q01DX001 (ip), vehicle: carboxymethylcellulose (CMC)
[13] = dose: 400.0 mg/kg/injection, schedule: Q01DX001 (ip), vehicle: carboxymethylcellulose (CMC)

Measured: T/C

CCOC(CN=Cc1ccc(Cl)c(Cl)c1)OCC
inactive: [1] 94 % of control | [2] 97 % of control | [3] 96 % of control

Cc1ccc(C(=O)N2C(=O)Cc3ccccc32)cc1
inactive: dose: 50.0 mg/kg/injection, schedule: Q04DX002 (ip), vehicle: Klucel (hydroxypropylcellulose) (HPC) 90 % of control | [4] 94 % of control | [5] 94 % of control

O=S(=O)(CCCCl)Cc1ccccc1
inactive: dose: 100.0 mg/kg/injection, schedule: Q01DX009 (ip), vehicle: other 100 % of control | dose: 100.0 mg/kg/injection, schedule: Q04DX003 (ip), vehicle: other 110 % of control | dose: 200.0 mg/kg/injection, schedule: Q01DX009 (ip), vehicle: other 98 % of control | dose: 200.0 mg/kg/injection, schedule: Q04DX003 (ip), vehicle: other 101 % of control | dose: 400.0 mg/kg/injection, schedule: Q01DX009 (ip), vehicle: other 102 % of control | dose: 400.0 mg/kg/injection, schedule: Q04DX003 (ip), vehicle: other 107 % of control

[Cl][Zn][Cl].[NH-]CCN1CC1.[NH-]CCN1CC1
inactive: dose: 10.0 mg/kg/injection, schedule: Q01DX009 (ip), vehicle: saline 108 % of control | dose: 20.0 mg/kg/injection, schedule: Q01DX009 (ip), vehicle: saline 111 % of control | dose: 20.0 mg/kg/injection, schedule: Q04DX003 (ip), vehicle: saline 104 % of control | dose: 40.0 mg/kg/injection, schedule: Q01DX009 (ip), vehicle: saline 93 % of control | dose: 40.0 mg/kg/injection, schedule: Q04DX003 (ip), vehicle: saline 102 % of control

COc1ccc(CC(=O)c2ccccc2)cc1
inactive: dose: 100.0 mg/kg/injection, schedule: Q04DX002 (ip), vehicle: saline 92 % of control | dose: 200.0 mg/kg/injection, schedule: Q04DX002 (ip), vehicle: saline 95 % of control | dose: 400.0 mg/kg/injection, schedule: Q04DX002 (ip), vehicle: saline 104 % of control

CCOC(=O)C(OCc1ccccc1)(C(=O)N1CCCCC1=O)C(C)C (centres undefined)
inactive: dose: 25.0 mg/kg/injection, schedule: Q04DX003 (ip), vehicle: Klucel (hydroxypropylcellulose) (HPC) 119 % of control | dose: 50.0 mg/kg/injection, schedule: Q04DX003 (ip), vehicle: Klucel (hydroxypropylcellulose) (HPC) 97 % of control | [1] 113 % of control | [2] 88 % of control

CN(C)C(=O)Sc1cc(Cl)c(S(=O)(=O)F)cc1Cl
inactive: [6] 97 % of control | [7] 100 % of control | dose: 400.0 mg/kg/injection, schedule: Q01DX009 (ip), vehicle: Klucel (hydroxypropylcellulose) (HPC) 90 % of control

[O-][n+]1c(C(Br)(Br)Br)ccc2ccccc21
inactive: [8] 97 % of control | [6] 95 % of control | [7] 106 % of control

CCOP(=O)(/C(=C\c1ccccc1)C(=O)c1ccccc1)c1ccccc1 (centres undefined)
inactive: [6] 96 % of control | [1] 95 % of control | [7] 95 % of control | [2] 98 % of control | dose: 300.0 mg/kg/injection, schedule: Q01DX009 (ip), vehicle: Klucel (hydroxypropylcellulose) (HPC) 90 % of control | [3] 98 % of control

O=NN(CC(=O)O)c1cccnc1
inactive: dose: 25.0 mg/kg/injection, schedule: Q01DX009 (ip), vehicle: Klucel (hydroxypropylcellulose) (HPC) 98 % of control | [8] 101 % of control | [6] 107 % of control

CCOC(=O)CN(CCN(CC)CC)c1ccc([N+](=O)[O-])cc1[N+](=O)[O-]
inactive: dose: 100.0 mg/kg/injection, schedule: Q01DX001 (ip), vehicle: other 92 % of control | dose: 200.0 mg/kg/injection, schedule: Q01DX001 (ip), vehicle: other 87 % of control | dose: 400.0 mg/kg/injection, schedule: Q01DX001 (ip), vehicle: other 100 % of control

C=CCn1c(SCc2ccccc2)nccc1=O
inactive: [4] 111 % of control | [5] 122 % of control | dose: 400.0 mg/kg/injection, schedule: Q04DX002 (ip), vehicle: Klucel (hydroxypropylcellulose) (HPC) 108 % of control

CC(=O)NC(CO)C(O)c1ccc([N+](=O)[O-])cc1 (centres undefined)
inactive: dose: 100.0 mg/kg/injection, schedule: Q01DX001 (ip), vehicle: saline with Tween-80 101 % of control | [9] 87 % of control | dose: 200.0 mg/kg/injection, schedule: Q01DX001 (ip), vehicle: saline with Tween-80 87 % of control | [10] 94 % of control | dose: 400.0 mg/kg/injection, schedule: Q01DX001 (ip), vehicle: saline with Tween-80 97 % of control | dose: 400.0 mg/kg/injection, schedule: Q04DX002 (ip), vehicle: saline with Tween-80 100 % of control

O=C(O)c1cccc(C(=O)c2ccccc2)c1O
inactive: [11] 97 % of control | [12] 100 % of control | [13] 92 % of control

COC(=O)c1cc(OC)cc(OC)c1C(=O)c1c(OC)c(Cl)c(C)c(Cl)c1OC
inactive: dose: 50.0 mg/kg/injection, schedule: Q04DX002 (ip), vehicle: saline with Tween-80 110 % of control | [9] 95 % of control | [10] 100 % of control

CCCCNC(=O)Nc1cc(C)c(C)cc1C
inactive: dose: 25.0 mg/kg/injection, schedule: Q01DX009 (ip), vehicle: gum acacia 106 % of control | dose: 50.0 mg/kg/injection, schedule: Q01DX009 (ip), vehicle: gum acacia 96 % of control | dose: 100.0 mg/kg/injection, schedule: Q01DX009 (ip), vehicle: gum acacia 88 % of control | dose: 100.0 mg/kg/injection, schedule: Q04DX003 (ip), vehicle: gum acacia 91 % of control | dose: 200.0 mg/kg/injection, schedule: Q01DX009 (ip), vehicle: gum acacia 92 % of control | dose: 200.0 mg/kg/injection, schedule: Q04DX003 (ip), vehicle: gum acacia 96 % of control | dose: 400.0 mg/kg/injection, schedule: Q04DX003 (ip), vehicle: gum acacia 87 % of control

[NH-]c1ccccc1C(=O)O.[NH-]c1ccccc1C(=O)O.[Ni+2]
inactive: dose: 50.0 mg/kg/injection, schedule: Q01DX009 (ip), vehicle: saline with Tween-80 100 % of control | dose: 200.0 mg/kg/injection, schedule: Q01DX009 (ip), vehicle: saline with Tween-80 105 % of control

COc1cc2c(cc1OC)CC(=O)NC2
inactive: dose: 100.0 mg/kg/injection, schedule: Q04DX003 (ip), vehicle: saline 95 % of control | dose: 200.0 mg/kg/injection, schedule: Q04DX003 (ip), vehicle: saline 97 % of control | dose: 400.0 mg/kg/injection, schedule: Q04DX003 (ip), vehicle: saline 97 % of control

CC(=O)Nc1cc(N)cc(NC(C)=O)c1
inactive: dose: 50.0 mg/kg/injection, schedule: Q01DX009 (ip), vehicle: water 91 % of control | dose: 100.0 mg/kg/injection, schedule: Q01DX009 (ip), vehicle: water 103 % of control and 107 % of control | dose: 100.0 mg/kg/injection, schedule: Q04DX003 (ip), vehicle: water 100 % of control | dose: 200.0 mg/kg/injection, schedule: Q01DX009 (ip), vehicle: water 102 % of control and 103 % of control | dose: 200.0 mg/kg/injection, schedule: Q04DX003 (ip), vehicle: water 98 % of control | dose: 400.0 mg/kg/injection, schedule: Q01DX009 (ip), vehicle: water 93 % of control

O=C(O)c1cccc(Nc2ccccc2C(=O)O)c1
inactive: [11] 90 % of control | [12] 92 % of control

CC(=O)Nc1ccc(Cc2ccccc2)cc1[N+](=O)[O-]
inactive: [11] 106 % of control | [12] 98 % of control | [13] 97 % of control

COc1nc(=O)n(C2OC(CO)C(O)C2O)cc1F (centres undefined)
inactive: dose: 50.0 mg/kg/injection, schedule: Q01DX001 (ip), vehicle: saline 95 % of control | dose: 100.0 mg/kg/injection, schedule: Q01DX001 (ip), vehicle: saline 90 % of control | dose: 200.0 mg/kg/injection, schedule: Q01DX001 (ip), vehicle: saline 93 % of control | dose: 400.0 mg/kg/injection, schedule: Q01DX001 (ip), vehicle: saline 90 % of control
